In assay [1] the test system is H522 (KRAS^WT) lung cancer cells. As to the kind of experiment: Cell proliferation (CyQuant), H522. The class given is cell-based. The note with it: 72 h. The procedure:
Cell proliferation. Potential effect of the ligands on cancer cell proliferation was tested in three lung cancer cells: SKLU-1, H1975 and H522. Cells were plated at ˜1,000 cell per well in a 96-well plate and maintained in full serum media with or without compound at 37° C. for 72 h changing the media with the compound every 24 h. Media with compound was prepared by serial dilution at concentrations indicated. Then cells were washed with PBS and frozen at −80° C. for a minimum of 24 h. Plates were thawed and CyQuant™ dye (in lysis buffer provided in the CyQuant™ cell proliferation assay kit, Invitrogen™) was added, and after a five-minute incubation, fluorescence (excitation: 480 nm emission: 520 nm) was measured with a Tecan Infinite M200 plate reader.

The target in assay [2] is KRASWT (Homo sapiens, UniProt P01116). As to the kind of experiment: Nucleotide exchange assay (intrinsic and SOS-mediated). The class given is biochemical. The procedure:
Nucleotide exchange and release assays. Loading of fluorescent-labeled GDP (BODIPY-GDP; BGDP from hereon) to KRAS was conducted following previous reports (23, 47), with minor modifications. Purified KRAS was buffer-exchanged in NAP-5 column (GE Life Sciences) in low Mg^2+ buffer (25 mM Tris pH 7.5, 50 mM NaCl, and 0.5 mM MgCl2). The eluate was incubated with 10-fold molar excess of BGDP (Life Technologies) in the presence of 5 mM EDTA and 1 mM DTT for 1.5 h at 20° C. in the dark. Then 10 mM MgCl2 was added and the solution was incubated for 30 min at 20° C. Free nucleotide was removed by gel filtration using a PD-10 column (GE Life Sciences) that had been equilibrated with the reaction buffer (25 mM Tris-HCL pH 7.5, 50 mM NaCl, 1 mM MgCl2, and 1 mM DTT). The concentration of ^BGDPKRAS was determined using Bradford assay and a BGDP standard curve. Then the effect of ligands on the intrinsic rate of nucleotide release was monitored using the decrease in fluorescence with time as BGDP dissociates from KRAS in a 100 μL reaction mixture (96-well plate) of 0.5 μM B^GDPKRAS, 100 μM GTP and varying concentrations of ligand (0 to 25 μM); GTP was added just before measurements. To measure the rate of SOS-mediated nucleotide release, 0.5 μM SOS (residues 564-1049, Cytoskeleton Inc) was added after adding GTP, and fluorescence was immediately read (excitation: 485 nm, emission: 510 nm) using Tecan Infinite M200 plate reader. Intrinsic and SOS-mediated nucleotide exchange rates were monitored with the fluorescence intensity increase of BGTP as it displaces GDP from KRAS. A 100 μL reaction mixture was used containing 0.5 μM each of ^GDPKRAS, BGTP (and SOS) plus varying concentrations of ligand (0 to 25 μM); BGTP was added just before measurements. Experiments were conducted with minimal light and the reaction was monitored for 2 h at room temperature. Fluorescence intensities were normalized at 120 s and the traces were fit with linear or single exponential functions (Igor Pro, Wavemetrics).
The effect of compound 11 on intrinsic and GEF-dependent nucleotide release and exchange reactions was determined. […] In particular, 11 decreased the intrinsic rate of nucleotide exchange by ˜10-fold at >10 μM (Fig S4, top-left), but it has no effect on intrinsic nucleotide release (Appendix I, Figure S4, bottom-left). […] Since GTP hydrolysis is unlikely to occur within the timescale of the experiments disclosed herein (2, 3), a plausible interpretation of the former would be compromised GTP loading. This is possible if, for example, the ligand binds to the nucleotide free ‘transition state’ conformation of KRAS and induces reorganization of active site residues. […]

Assay [3] relates to HRAS^G12V. Briefly: Cell signaling (Western) in BHK cells expressing HRAS G12V. The format is cell-based, hamster. The procedure: Cell signaling. The inhibitory potential of compounds was tested in monoclonal Baby Hamster Kidney (BHK) cell lines stably expressing monomeric green fluorescence protein (mGFP)-tagged KRAS^G12D, K-Ras^G12V and HRAS^G12V. Cells were cultured in Dulbecco's Modified Eagle Medium (DMEM, Hyclone) supplemented with 10% v/v bovine calf serum and incubated with compound or vehicle (DMSO) for 3 h without serum. Cells were then harvested in lysis buffer (50 mM Tris (pH 7.5), 75 mM NaCl, 25 mM NaF, 5 mM MgCl2, 5 mM EGTA, 1 mM dithiothreitol, 100 μM NaVO4, 1% Nonidet P40 plus protease inhibitors) and subjected to Western analysis controlling protein loading by BCA (bicinchoninic acid) assay. Lysates were resolved with Bio-Rad polyacrylamide TGX 10% gel, transferred to polyvinylidene fluoride (PVDF) membrane and immunoblotted using pan-AKT (2920S), GFP (2956S), pAKT^S473 (4060L), p-cRaf^S338 (9427S), p-ERK^T202/Y204 (4370L), ERK1/2 (4695S) or β-actin antibodies (Cell Signaling Technology). IC50 values were calculated with Prism 4-parameter fit.

Chain of KRASWT (P01116 1-188 isoform P01116-2): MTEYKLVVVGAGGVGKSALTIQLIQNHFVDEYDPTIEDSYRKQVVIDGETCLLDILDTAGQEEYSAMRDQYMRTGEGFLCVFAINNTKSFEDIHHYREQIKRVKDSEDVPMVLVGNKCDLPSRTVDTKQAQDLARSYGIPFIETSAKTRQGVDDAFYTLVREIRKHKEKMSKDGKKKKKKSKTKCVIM

Turning to `Cc1nn2c(N3CCN(CCO)CC3)cc(-c3ccccc3)nc2c1-c1ccccc1` [Compound 11, 2-[4-(8-methyl-3,9-diphenyl-2,6,7-triazabicyclo[4.3.0]nona-2,4,7,9-tetraen-5-yl)piperazin-1-yl]ethanol], the sensitivity of proliferation result in assay [1] is “sensitive”. Also, the “effect on SOS-mediated nucleotide exchange rate” value in assay [2] (SOS-mediated) is recorded as “slightly reduced”. Further, in assay [2] (SOS-mediated (Fig S4 top-right)), the “decrease of rate of nucleotide exchange” value was 1.1 fold. Further, the “effect on intrinsic nucleotide exchange rate” value in assay [2] (intrinsic) is on record as “slightly reduced”. Moreover, in assay [2] (intrinsic, at >10 μM), the “decrease of intrinsic rate of nucleotide exchange” value is ~10 fold. Moreover, in assay [3], the “effect on p-AKT levels” value is “no major effect”; the “effect on p-ERK levels” value is “not and no significant effect”; the “effect on p-cRaf levels” value is “not and no significant effect”.
